Measured values taken from patent publication US4282247A, “5-(2-Hydroxy-3-thiopropoxy) chromone-2-carboxylic acids chemical process and pharmaceutical compositions” (CM Industries, priority 1979, dated 1981).
Structures can show the parent of a compound that is named as a salt. Where two headings read alike, the source gives them in different places.

How the values were obtained:
[1] = test system: passive cutaneous anaphylaxis; experiment: Inhibition of passive cutaneous anaphylaxis in rats (oral), % versus controls; assay type: in vivo; details: rat, os
Method: The 5-(2-hydroxy-3-thiopropoxy)chromone-2-carboxylic acids, their salts and their esters have been tested in rats by oral route to evaluate their ability to inhibit passive cutaneous anaphylaxis in animals sensitized to egg albumin and Bordetella pertussis.
The percentages of inhibition, in comparison with the controls, of the allergic reaction induced by passive cutaneous anaphylaxis in rats treated with 0.1 ml of an homologous antiserum diluted 1/10 and injected by intradermal route, are summarized in table I.

LD50 mouse, os = details: in vivo, po
[2] = test system: passive cutaneous anaphylaxis; experiment: ED50 for inhibition of passive cutaneous anaphylaxis in rats sensitized to egg albumin and Bordetella pertussis, oral and intravenous; assay type: in vivo; details: Table IV, rat
Text: The ability of the 5-(2-hydroxy-3-thiopropoxy) chromone-2-carboxylic acids of the present invention and of the salts and esters thereof of inhibiting--by oral as well as by intravenous route--the passive cutaneous anaphylaxis in rats sensitized to egg albumin and Bordetella pertussis has been compared to that of two reference compounds: […]

[3] = po, Table I, °° significant P ≤ 0.01, read-out: Δ % in comparison with controls (inhibition of passive cutaneous anaphylaxis)
[4] = po, Table I, °° P ≤ 0.01, ° P ≤ 0.05 (product B), read-out: Δ % in comparison with controls (inhibition of passive cutaneous anaphylaxis)
[5] = po, Table III, 10 mg/kg, °° P ≤ 0.01, * non significant (product D), read-out: Δ % in comparison with controls (inhibition of passive cutaneous anaphylaxis)
[6] = po, Table III, °° P ≤ 0.01, * non significant (product D), read-out: Δ % in comparison with controls (inhibition of passive cutaneous anaphylaxis)

CCCCSCC(O)COc1cccc2oc(C(=O)OCC)cc(=O)c12 (stereo not shown) [CM 57193, Ethyl 5-(2-hydroxy-3-butylthiopropoxy)chromone-2-carboxylate]
change in vivo at 50 mg/kg [1, 3]: -47.6% | change in vivo at 100 mg/kg [1, 4]: -70.8% | LD50 (LD50 mouse, os): > 1000 mg/kg

CCCCSCC(O)COc1cccc2oc(C(=O)O)cc(=O)c12.O (stereo not shown) [CM 57194, 5-(2-hydroxy-3-butylthiopropoxy)chromone-2-carboxylic acid monohydrate]
change in vivo at 100 mg/kg [1, 4]: -55.4% | LD50 (LD50 mouse, os): > 1000 mg/kg

CCOC(=O)c1cc(=O)c2c(OCC(O)CSC)cccc2o1 (stereo not shown) [CM 57201, ethyl 5-(2-hydroxy-3-methylthiopropoxy)chromone-2-carboxylate]
Δ % in comparison with controls (inhibition of passive cutaneous anaphylaxis) ([1]; Table II, 10 mg/kg, °° P ≤ 0.01, * non significant (product C)): -65.55% | change in vivo at 10 mg/kg ([1]; po, Table I, 10 mg/kg, °° significant P ≤ 0.01, read-out: Δ % in comparison with controls (inhibition of passive cutaneous anaphylaxis)): -65.5% | change in vivo at 100 mg/kg [1, 4]: -75.1% | ED50 ([2]; i.v., read-out: ED50): 0.11 mg/kg | ED50 ([2]; po, os, read-out: ED50): 5.39 mg/kg | LD50 (LD50 mouse, os): > 1000 mg/kg

CSCC(O)COc1cccc2oc(C(=O)O)cc(=O)c12 (stereo not shown) [CM 57202, 5-(2-hydroxy-3-methylthiopropoxy)chromone-2-carboxylic acid]
change in vivo at 10 mg/kg [1, 5]: -53% | change in vivo at 100 mg/kg [1, 6]: -70.4% | ED50 ([2]; i.v., read-out: ED50): 0.13 mg/kg | ED50 ([2]; po, os, read-out: ED50): 38.1 mg/kg

CCOC(=O)c1cc(=O)c2c(OCC(O)CSC(C)C)cccc2o1 (stereo not shown) [CM 57215, Ethyl 5-(2-hydroxy-3-isopropylthiopropoxy)chromone-2-carboxylate]
change in vivo at 100 mg/kg [1, 4]: -75% | LD50 (LD50 mouse, os): > 1000 mg/kg

CCOC(=O)c1cc(=O)c2c(OCC(O)CSCC)cccc2o1 (stereo not shown) [CM 57249, Ethyl 5-(2-hydroxy-3-ethylthiopropoxy)chromone-2-carboxylate]
change in vivo at 50 mg/kg [1, 3]: -73% | change in vivo at 100 mg/kg [1, 4]: -75.8% | LD50 (LD50 mouse, os): > 1000 mg/kg

CCCSCC(O)COc1cccc2oc(C(=O)OCC)cc(=O)c12 (stereo not shown) [CM 57251, Ethyl 5-(2-hydroxy-3-propylthiopropoxy)chromone-2-carboxylate]
change in vivo at 100 mg/kg [1, 4]: -69.1% | LD50 (LD50 mouse, os): > 1000 mg/kg

O=C(O)c1cc(=O)c2c(OCC(O)COc3cccc4oc(C(=O)O)cc(=O)c34)cccc2o1 [Product E, 1,3-bis-(2-carboxy-5-chromonyloxy)propane-2-ol sodium salt, reference compound]
ED50 ([2]; i.v., read-out: ED50): 1.15 mg/kg | ED50 ([2]; os): inactive

N#Cc1ccc(OCC(O)COc2cccc3oc(C(=O)O)cc(=O)c23)cc1 (stereo not shown) [Product F, 5-(2-hydroxy-3-p-cyanophenoxypropoxy)chromone-2-carboxylic acid, reference compound]
ED50 ([2]; i.v., read-out: ED50): 0.29 mg/kg | ED50 ([2]; os): inactive

O=C(O)c1ccc2oc3ccc(OCCO)cc3c(=O)c2c1 [product A, 7-(2-hydroxyethoxy)-9-oxoxanthene-2-carboxylic acid, reference compound]
change in vivo at 100 mg/kg [1, 4]: -66.2% | LD50 (LD50 mouse, os): ~1000 mg/kg

CC(=O)c1ccc(O)c(C(=O)O)c1 [product B, 5-acetylsalicylic acid, reference compound]
change in vivo at 100 mg/kg [1, 4]: -29.2% | LD50 (LD50 mouse, os): ~1000 mg/kg

CCOC(=O)c1cc(=O)c2c(OCC(O)COC)cccc2o1 (stereo not shown) [product C, ethyl 5-(2-hydroxy-3-methoxypropoxy)chromone-2-carboxylate, reference compound]
change in vivo at 10 mg/kg ([1]; po, Table II, 10 mg/kg, °° P ≤ 0.01, * non significant (product C), read-out: Δ % in comparison with controls (inhibition of passive cutaneous anaphylaxis)): 8.71%

CSCC(O)COc1ccc2c(=O)cc(C(=O)O)oc2c1 (stereo not shown) [product D, 7-(2-hydroxy-3-methylthiopropoxy)chromone-2-carboxylic acid, reference compound]
change in vivo at 10 mg/kg [1, 5]: 17.8% | change in vivo at 100 mg/kg [1, 6]: -16.2% | change in vivo at 200 mg/kg ([1]; po, Table III, 200 mg/kg, ° significant P ≤ 0.05, read-out: Δ % in comparison with controls (inhibition of passive cutaneous anaphylaxis)): -30.1%
